# Test results taken from ChEMBL document CHEMBL3621058, “Synthesis and structure-activity studies of the V-ATPase inhibitor saliphenylhalamide (SaliPhe) and simplified analogs” (Bioorg Med Chem Lett, 2015).
# pIC50: −log10 of the molar value. Active and inactive are the calls of the source. The calls are words filed in the database; no cut-off is given here.
# Assays:
# [1] = Inhibition of purified reconstituted bovine brain V-ATPase; design: species or system Bos taurus
# HCC4017 = assay: Growth inhibition of human HCC4017 cells assessed as reduction in cell viability at 0.1 nM to 10 uM; type: functional
# Bos taurus = species on record: Bos taurus; assay: Inhibition of purified reconstituted bovine brain V-ATPase at 2 uM
# [2] = Inhibition of V-ATPase (unknown origin); design: species or system Homo sapiens
SMILES,pIC50 [1],inhibition (Bos taurus),growth inhibition (GI) (HCC4017),pIC50 [2]
O=C(C#Cc1ccccc1)N/C=C/C[C@H]1C[C@@H](O)CC/C=C/Cc2cccc(C(F)F)c2C(=O)O1,6.30,–,inactive,–
Nc1cccc2c1C(=O)O[C@@H](C/C=C/NC(=O)C#Cc1ccccc1)C[C@@H](O)CC/C=C/C2,6.52,–,inactive,–
O=C(C#Cc1ccccc1)N/C=C/C[C@H]1C[C@@H](O)CC/C=C/Cc2cccc(O)c2C(=O)O1,8.30,–,Active,–
C[C@H]1C/C=C/Cc2cccc(O)c2C(=O)O[C@@H](C/C=C/NC(=O)C#Cc2ccccc2)C[C@H]1O [SALIPHENYLHALAMIDE],9.00,–,Active,–
O=C(C#Cc1ccccc1)N/C=C/C[C@H]1C[C@@H](O)CC/C=C/Cc2cccc(F)c2C(=O)O1,6.00,–,inactive,–
CC/C=C\C=C/C(=O)N/C=C/C[C@H]1C[C@@H](O)[C@@H](C)C/C=C/Cc2cccc(O)c2C(=O)O1 [SALICYLIHALAMIDE A],–,–,–,> 9.00
O=C(C#Cc1ccccc1)N/C=C/C[C@H]1C[C@@H](O)CC/C=C/Cc2cccc(O)c2C(=O)N1,8.52,–,Active,–

# The next lines start with results.
pIC50 [1],inhibition (Bos taurus),SMILES,growth inhibition (GI) (HCC4017),pIC50 [2]
6.00,–,O=C(C#Cc1ccccc1)N/C=C/C[C@H]1C[C@@H](O)CC/C=C/Cc2cccc([N+](=O)[O-])c2C(=O)O1,inactive,–
6.30,–,O=C(C#Cc1ccccc1)N/C=C/C[C@H]1C[C@@H](O)CC/C=C/Cc2cc(F)ccc2C(=O)O1,inactive,–
–,inactive,O=C(C#Cc1ccccc1)N/C=C/C[C@H]1C[C@@H](O)CC/C=C/Cc2cc(O)ccc2C(=O)O1,inactive,–
6.52,–,O=C(C#Cc1ccccc1)N/C=C/C[C@H]1C[C@@H](O)CC/C=C/Cc2cc([N+](=O)[O-])ccc2C(=O)O1,inactive,–
